Results published in patent US20080051429A1, “USE OF 4-AMINO-PIPERIDINES FOR TREATING SLEEP DISORDERS” (priority 2006, published 2008).
Where a name gives a salt, the structure may show the parent alone. Read-outs that look alike come from different tables or passages of the source.

Target: T1, 5-HT2A receptor (Homo sapiens, UniProt P28223)
T1 construct: expressed in transfected cells; host or cells: NIH3T3 cells, pSI expression vector
Assay: R-SAT functional receptor assay
Format: cell-based
Conditions: for Emax: 120 h
Description: The functional receptor assay, Receptor Selection and Amplification Technology (R-SAT), was used (with minor modifications from that previously described U.S. Pat. No. 5,707,798) to screen compounds for efficacy at the 5-HT2A receptor. Briefly, NIH3T3 cells were grown in 96 well tissue culture plates to 70-80% confluence. Cells were transfected for 12-16 hours with plasmid DNAs using superfect (Qiagen Inc.) as per manufacture's protocols. R-SAT's were generally performed with 50 ng/well of receptor and 20 ng/well of Beta-galactosidase plasmid DNA. All receptor and G-protein constructs used were in the pSI mammalian expression vector (Promega Inc) as described in U.S. Pat. No. 5,707,798. The 5HT2A receptor gene was amplified by nested PCR from brain cDNA using the oligodeoxynucleotides based on the published sequence (see Saltzman et. al. Biochem. Biophys. Res. Comm. 181:1469-78 (1991)). Large-scale transfections, cells were transfected for 12-16 hours, then trypsinized and frozen in DMSO. Frozen cells were later thawed, plated at 10,000-40,000 cells per well of a 96 well plate that contained drug. With both methods, cells were then grown in a humidified atmosphere with 5% ambient CO2 for five days. Media was then removed from the plates and marker gene activity was measured by the addition of the beta-galactosidase substrate ONPG (in PBS with 5% NP-40). The resulting colorimetric reaction was measured in a spectrophotometric plate reader (Titertek Inc.)at […]. All data were analyzed using the computer program XLFit (IDBSm). Efficacy is the percent maximal repression compared to repression by a control compound (ritanserin in the case of 5HT2A). pIC50 is the negative of the log(IC50), where IC50 is the calculated concentration in Molar that produces 50% maximal repression.
Briefly, the 5-HT2A receptor, and the alpha subunit of the guanine nucleotide binding protein Gq were transiently transfected into NIH3T3 cells and assayed using the functional receptor assay, Receptor Selection and Amplification Technology (R-SAT) essentially as disclosed in U.S. Pat. No. 5,707,798. Each compound was screened at seven serially diluted concentrations in triplicate. Data were analyzed using least squares fit analysis with GraphPad Prism (San Diego, Calif.), and are reported normalized to percent response.
R-SAT assays (as described in Example 42) were carried out with cells transfected with receptors (listed below) to determine the receptor selectivity profile for compound 26HCH16D. 5HT2A inverse agonist data (IC50 nM; % efficacy) were derived from detailed dose response curves (7 points in triplicate).
(§1) The functional receptor assay, Receptor Selection and Amplification Technology (R-SAT), was used (with minor modifications from that previously described U.S. Pat. No. 5,707,798) to screen compounds for efficacy at the 5-HT2A receptor. The RSAT assay was conducted as described herein.
as §1, with “5,707,798, which is incorporated herein by reference in its entirety)” for “5,707,798)”

[1] = compared to ritanserin, read-out: 5HT2A % inhibition
[2] = Table 6, read-out: 5HT2A pIC50 (converted)
[3] = Table 5, read-out: 5HT2A pIC50 (converted)

T1 sequence (P28223 whole entry): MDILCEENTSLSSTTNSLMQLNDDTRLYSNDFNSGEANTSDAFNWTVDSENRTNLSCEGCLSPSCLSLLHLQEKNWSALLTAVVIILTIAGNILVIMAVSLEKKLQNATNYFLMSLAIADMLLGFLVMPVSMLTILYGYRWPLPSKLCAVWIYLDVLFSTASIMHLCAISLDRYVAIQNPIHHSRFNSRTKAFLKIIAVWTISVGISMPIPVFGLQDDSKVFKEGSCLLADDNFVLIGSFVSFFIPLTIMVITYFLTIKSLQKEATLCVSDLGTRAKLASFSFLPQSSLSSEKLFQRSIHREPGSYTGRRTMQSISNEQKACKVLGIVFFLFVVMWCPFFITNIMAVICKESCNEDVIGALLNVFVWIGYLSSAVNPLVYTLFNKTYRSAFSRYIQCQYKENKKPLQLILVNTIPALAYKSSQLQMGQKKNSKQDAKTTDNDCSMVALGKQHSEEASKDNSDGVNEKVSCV

Compound | Emax [1] [%] | IC50 [2] [nM] | IC50 [3] [nM] | Emax (read-out: 5HT2A % INH) [%] | also measured
CN1CCC2(CC1)OC(=O)N(Cc1ccc(OCC3CC3)cc1)C2Cc1ccc(F)cc1 (stereo not shown) [Example 69NLS52, 3-(4-Cyclopropylmethoxybenzyl)-4-(4-fluorobenzyl)-8-methyl-1-oxa-3,8-diaza-spiro[4.5]decan-2-one, hydrochloride] | 87 | 0.251 |  |  | 
CC(C)COc1ccc(CN2C(=O)OC3(CCN(CCC4OCCO4)CC3)C2Cc2ccc(F)cc2)cc1 (stereo not shown) [Example 69NLS79-II, 8-(2-[1,3]Dioxolan-2-yl-ethyl)-4-(4-fluorobenzyl)-3-(4-isobutoxybenzyl)-1-oxa-3,8-diaza-spiro[4.5]decan-2-one, hydrochloride] | 101 | 7.94 |  |  | 
CC(C)COc1ccc(CN2C(=O)OC3(CCNCC3)C2Cc2ccc(F)cc2)cc1 (stereo not shown) [Example 69NLS81, 4-(4-Fluorobenzyl)-3-(4-isobutoxybenzyl)-1-oxa-3,8-diaza-spiro[4.5]decan-2-one, hydrochloride] | 85 | 5.01 |  |  | 
CC(C)COc1ccc(CN2C(=O)OC3(CCN(CCCN4CCOCC4)CC3)C2Cc2ccc(F)cc2)cc1 (stereo not shown) [Example 69NLS83, 4-(4-Fluorobenzyl)-3-(4-isobutoxybenzyl)-8-(3-morpholin-4-yl-propyl)-1-oxa-3,8-diaza-spiro[4.5]decan-2-one, dihydrochloride] | 85 | 10 |  |  | 
CC(C)COc1ccc(CN2C(=O)OC3(CCN(C(C)C)CC3)C2Cc2ccc(F)cc2)cc1 (stereo not shown) [Example 69NLS85, 4-(4-Fluorobenzyl)-3-(4-isobutoxybenzyl)-8-isopropyl-1-oxa-3,8-diaza-spiro[4.5]decan-2-one, hydrochloride] | 95 | 0.794 |  |  | 
CC(C)COc1ccc(CC(=O)N(Cc2ccc(F)cc2)C2CCN(CCCN3CCCC3=O)CC2)cc1 [Example 098AF76-65, N-(4-Fluorobenzyl)-2-(4-isobutoxyphenyl)-N-{1-[3-(2-oxo-pyrrolidin-1-yl)propyl]piperidin-4-yl}acetamide, hydrochloride] |  |  | 0.794 |  | Emax (read-out: 5HT2A % INH, compared to ritanserin): 100%
CC(C)COc1ccc(CC(=O)N(Cc2ccc(F)cc2)C2CCN(CCCN3CC(C)CC(C)C3)CC2)cc1 (stereo not shown) [Example 103NLS45-B, N-{1-[3-(3,5-Dimethylpiperidin-1-yl)propyl]piperidin-4-yl}-N-(4-fluorobenzyl)-2-(4-isobutoxyphenyl)acetamide, dihydrochloride] |  |  | 25.1 | 84 | 
CC(C)COc1ccc(CC(=O)N(Cc2ccc(F)cc2)C2CCN(CCCN3CC(C)OC(C)C3)CC2)cc1 (stereo not shown) [Example 103NLS69-A, N-{1-[3-(2,6-Dimethylmorpholin-4-yl)propyl]piperidin-4-yl}-N-(4-fluorobenzyl)-2-(4-isobutoxyphenyl)acetamide, dioxalate] |  |  | 2 | 96 | 
CCCOc1ccc(CC(=O)N(CCc2ccc(F)cc2)C2CCN(CCCN3C(=O)OC[C@@H]3C(C)C)CC2)cc1 [Example 117NLS03-B, N-[2-(4-Fluorophenyl)ethyl]-N-{1-[3-(4-(S)-isopropyl-2-oxo-oxazolidin-3-yl)propyl]piperidin-4-yl}-2-(4-propoxyphenyl)acetamide, oxalate] |  |  |  | 85 | IC50 (5HT2A pIC50, Table 5): 3.98 nM
CC(C)COc1ccc(CNC(=O)N(Cc2ccc(F)cc2)C2CCN(CCC3OCCCO3)CC2)cc1 [Example 117NLS25, N-{1-[2-(1,3-Dioxan-2-yl)ethyl]piperidin-4-yl}-N-(4-fluorobenzyl)-N′-(4-isobutoxybenzyl)carbamide, tartrate] |  |  | 1.26 | 94 | 
CC[C@H]1COC(=O)N1CCCN1CCC(N(Cc2ccc(F)cc2)C(=O)Cc2ccc(OCC(C)C)cc2)CC1 [Example 118AF16-80, N-(4-Fluorobenzyl)-2-(4-isobutoxyphenyl)-N-{1-[3-((S)-4-ethyl-2-oxo-oxazolidin-3-yl)-propyl]piperidin-4-yl}acetamide, oxalate] |  |  |  | 103 | IC50 (5HT2A pIC50, Table 5): 0.794 nM
CC(C)COc1ccc(CC(=O)N(Cc2ccc(F)cc2)C2CCN(CCC3OC(C)CC(C)O3)CC2)cc1 (stereo not shown) [Example 118AF37-88, N-{1-[2-(4,6-Dimethyl-1,3-dioxan-2-yl)ethyl]piperidin-4-yl}-N-(4-fluorobenzyl)-2-(4-isobutoxyphenyl)acetamide, oxalate] |  |  | 0.631 | 105 | 
O=C(Cc1ccc2occc2c1)N(Cc1ccc(F)cc1)C1CCN(CCC2OCCCO2)CC1 [Example 128NLS22-A, 2-Benzofuran-5-yl-N-{1-[2-(1,3-dioxan-2-yl)ethyl]piperidin-4-yl}-N-(4-fluorobenzyl)acetamide, tartrate] |  |  | 3.16 | 98 | 
N-(2-Phenylethyl)-N-(piperidin-4-yl)-4-methoxyphenylmethylacetamide [Example 26HCH80-2] |  |  |  |  | pIC50 (average) (inverse agonist): 7.78; Efficacy (average) (percent maximal repression compared to ritanserin): 89
